Laboratory results from patent US10336702B2, “Pharmaceutically active compounds” (BERGENBIO ASA, priority 2015, dated 2019).

How the values were obtained:
[1] = target: T1, p-Akt2 in WM115 cells (Homo sapiens, UniProt P31751); experiment: Phospho-Akt cellular SureFire assay, p-Akt2 in WM115 cells; format: cell-based; conditions: insulin stimulated, read-out: Biological Assay 2 IC50 (nM) Akt2 WM115
T1 construct: SureFire assays to detect cellular p-Akt1, p-Akt2 and p-Akt3 levels in WM115 cells (Akt2/3) and LNCaP cells (Akt1); endogenous in cells; host or cells: WM115 (ECACC 91061232), insulin-stimulated
Summary of the method: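 WM115 cells in 0.1% FBS medium stimulated 10 min with 100 nM insulin, then exposed to compound for 15 min at 37° C (0.3% DMSO final). Lysates assayed by AlphaScreen with anti-(pThr308)Akt and isoform-specific total Akt2 antibodies; IC50 from 4-parameter fit.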

[2] = target: T2, Akt3 (Homo sapiens, UniProt Q9Y243); experiment: Akt activation assay (PDK1-mediated activation, LANCE Ultra crosstide TR-FRET), Akt3; format: biochemical; conditions: read-out: Biological Assay 1 IC50 (nM) Akt3
T2 construct: unspecified tag, removed (detagged) (cleaved yes); purchased SignalChem and Proteros (Akt3); Merck Millipore (PDK1) 14-452 (PDK1); none given for Akt3
Summary of the method: (§1)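 Human Akt1, Akt2 or Akt3 (SignalChem: 5, 15, 3 nM; Proteros: 5 nM each) was preincubated with compound, then activated by 5 nM PDK1 on PtdIns(3,4,5)P3/DOPS/DOPC vesicles with 100 µM ATP and 100 nM ULight-crosstide (HEPES pH 7.5, 1% DMSO) for 30 min. Product was detected by Eu-anti-phospho-crosstide TR-FRET (665/615 nm), with IC50 from a 4-parameter fit.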

[3] = target: T3, p-Akt3 in WM115 cells (Homo sapiens, UniProt Q9Y243); experiment: Phospho-Akt cellular SureFire assay, p-Akt3 in WM115 cells; format: cell-based; conditions: insulin stimulated, read-out: Biological Assay 2 IC50 (nM) Akt3 WM115
T3 construct: SureFire assays to detect cellular p-Akt1, p-Akt2 and p-Akt3 levels in WM115 cells (Akt2/3) and LNCaP cells (Akt1); endogenous in cells; host or cells: WM115 (ECACC 91061232), insulin-stimulated
Summary of the method: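 WM115 cells were serum-reduced to 0.1% FBS, stimulated with 100 nM insulin for 10 min, then exposed to compound (0.3% DMSO) for 15 min at 37 °C. Lysates were assayed for Thr308-phosphorylated Akt3 by AlphaScreen SureFire using an isoform-specific total Akt3 capture antibody. IC50 was derived from a 4-parameter fit.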

[4] = target: T4, Akt2 (Homo sapiens, UniProt P31751); experiment: Akt activation assay (PDK1-mediated activation, LANCE Ultra crosstide TR-FRET), Akt2; format: biochemical; conditions: read-out: Biological Assay 1 IC50 (nM) Akt2
T4 construct: unspecified tag, removed (detagged) (cleaved yes); purchased SignalChem and Proteros (Akt2); Merck Millipore (PDK1) 14-452 (PDK1); none given for Akt2
Summary of the method: as §1

[5] = target: T5, Akt1 (Homo sapiens, UniProt P31749); experiment: Akt activation assay (PDK1-mediated activation, LANCE Ultra crosstide TR-FRET), Akt1; format: biochemical; conditions: read-out: Biological Assay 1 IC50 (nM) Akt1
T5 construct: unspecified tag, removed (detagged) (cleaved yes); purchased SignalChem and Proteros (Akt1); Merck Millipore (PDK1) 14-452 (PDK1); none given for Akt1
Summary of the method: as §1

[6] = target: T6, p-Akt1 in LNCaP cells (Homo sapiens, UniProt P31749); experiment: Phospho-Akt cellular SureFire assay, p-Akt1 in LNCaP cells; format: cell-based; conditions: read-out: Biological Assay 2 IC50 (nM) Akt1 LNCaP
T6 construct: SureFire assays to detect cellular p-Akt1, p-Akt2 and p-Akt3 levels in WM115 cells (Akt2/3) and LNCaP cells (Akt1); endogenous in cells; host or cells: LNCaP (ECACC 89110211)
Summary of the method: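 LNCaP cells, 5×10^4/well, seeded overnight, switched to 0.1% FBS medium without insulin stimulation, then compound for 15 min at 37 °C (0.3% DMSO). Lysate p-Akt1 (pThr308) by AlphaScreen SureFire, two 2 h incubations at room temperature; IC50 by 4-parameter fit.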

T4 sequence (P31751 whole entry): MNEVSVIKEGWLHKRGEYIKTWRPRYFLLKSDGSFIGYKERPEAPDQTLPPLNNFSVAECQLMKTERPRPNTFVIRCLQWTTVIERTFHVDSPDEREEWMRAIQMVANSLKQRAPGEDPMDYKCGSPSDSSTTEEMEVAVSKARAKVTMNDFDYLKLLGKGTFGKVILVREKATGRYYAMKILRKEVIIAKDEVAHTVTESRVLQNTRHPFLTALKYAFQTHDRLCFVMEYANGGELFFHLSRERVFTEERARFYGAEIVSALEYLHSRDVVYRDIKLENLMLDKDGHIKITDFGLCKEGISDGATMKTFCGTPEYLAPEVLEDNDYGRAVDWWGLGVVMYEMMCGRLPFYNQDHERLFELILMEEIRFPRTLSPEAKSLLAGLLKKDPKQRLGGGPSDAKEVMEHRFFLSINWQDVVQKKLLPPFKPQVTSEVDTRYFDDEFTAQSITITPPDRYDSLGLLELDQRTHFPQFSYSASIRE
T1 sequence (P31751 whole entry): as above
T2 sequence (Q9Y243 whole entry): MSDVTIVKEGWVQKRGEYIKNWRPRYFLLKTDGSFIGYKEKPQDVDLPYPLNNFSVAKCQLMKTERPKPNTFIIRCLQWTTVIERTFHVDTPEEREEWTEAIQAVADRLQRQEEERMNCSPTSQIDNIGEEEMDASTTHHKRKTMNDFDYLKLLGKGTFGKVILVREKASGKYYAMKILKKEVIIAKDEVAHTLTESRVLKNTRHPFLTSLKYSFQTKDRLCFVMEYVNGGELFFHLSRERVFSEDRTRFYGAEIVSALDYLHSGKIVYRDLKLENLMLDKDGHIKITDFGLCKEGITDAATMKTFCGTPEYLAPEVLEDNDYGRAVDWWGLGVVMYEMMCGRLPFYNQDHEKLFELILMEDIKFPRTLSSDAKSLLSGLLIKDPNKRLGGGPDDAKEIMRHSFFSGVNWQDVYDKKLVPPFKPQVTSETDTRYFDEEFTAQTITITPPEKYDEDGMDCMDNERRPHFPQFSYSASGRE
T3 sequence (Q9Y243 whole entry): as above
T6 sequence (P31749 whole entry): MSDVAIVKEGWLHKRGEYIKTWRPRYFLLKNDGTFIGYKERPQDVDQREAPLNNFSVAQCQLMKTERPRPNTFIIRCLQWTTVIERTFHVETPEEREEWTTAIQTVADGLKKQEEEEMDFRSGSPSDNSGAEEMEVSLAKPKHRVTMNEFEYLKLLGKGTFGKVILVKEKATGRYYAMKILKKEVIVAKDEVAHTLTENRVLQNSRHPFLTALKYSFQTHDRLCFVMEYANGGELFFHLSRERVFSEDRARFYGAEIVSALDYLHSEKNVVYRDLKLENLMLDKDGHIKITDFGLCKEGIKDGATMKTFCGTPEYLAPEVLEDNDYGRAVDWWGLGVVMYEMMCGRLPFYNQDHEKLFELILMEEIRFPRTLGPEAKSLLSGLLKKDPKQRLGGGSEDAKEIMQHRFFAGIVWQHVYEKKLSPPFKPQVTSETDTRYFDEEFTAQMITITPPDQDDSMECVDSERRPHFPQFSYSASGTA
T5 sequence (P31749 whole entry): as above

| IC50 [1] [nM] | IC50 [2] [nM] | IC50 [3] [nM] | IC50 [4] [nM] | IC50 [5] [nM] | IC50 [6] [nM] | SMILES |
| --- | --- | --- | --- | --- | --- | --- |
| 380 | 4 | 24 | 50 | 1400 | 1600 | COC(=O)N(C)[C@H]1CC[C@H](CC(=O)Nc2cc(-c3ccccc3)c(-c3ccc([C@]4(N)C[C@](C)(O)C4)cc3)nn2)CC1 [Example 59, Methyl (trans-4-(2-((6-(4-(trans-1-amino-3-hydroxy-3-methylcyclobutyl)phenyl)-5-phenylpyridazin-3-yl)amino)-2-oxoethyl)cyclohexyl)(methyl)carbamate] |
| 1900 | 48 | 140 | 1200 | > 26000 | 7100 | CN([C@H]1CC[C@H](CC(=O)Nc2cnc(-c3ccc(C4(N)CCC4)cc3)c(-c3ccsc3)c2)CC1)S(C)(=O)=O [Example 17, N-(6-(4-(1-aminocyclobutyl)phenyl)-5-(thiophen-3-yl)pyridin-3-yl)-2-(trans-4-(N-methylmethylsulfonamido)cyclohexyl)acetamide] |
| 11000 | 1800 | 440 | 13000 | > 30000 | > 30000 | CC(=O)N(C(C)C)[C@H]1CC[C@H](CC(=O)Nc2cnc(-c3ccc(C(C)(C)N)cc3)c(-c3ccccc3)c2)CC1 [Example A44, N-(6-(4-(2-aminopropan-2-yl)phenyl)-5-phenylpyridin-3-yl)-2-(trans-4-(N-isopropylacetamido)cyclohexyl)acetamide] |
| 1100 | 180 | 21 | 580 | 7700 | > 22000 | CC(=O)N[C@H]1CC[C@H](CC(=O)Nc2cnc(-c3ccc([C@]4(N)C[C@H](F)C4)cc3)c(-c3ccccc3)c2)CC1 [Example 15, 2-(trans-4-acetamidocyclohexyl)-N-(6-(4-(trans-1-amino-3-fluorocyclobutyl)phenyl)-5-phenylpyridin-3-yl)acetamide] |
| > 30000 | 1000 | 140 | > 30000 | > 30000 | > 30000 | CC(=O)N(C)[C@H]1CC[C@H](CC(=O)Nc2cc(-c3ccccn3)c(-c3ccc(C4(N)CCC4)cc3)cn2)CC1 [Example 76, N-(5′-(4-(1-aminocyclobutyl)phenyl)-[2,4′-bipyridin]-2′-yl)-2-(trans-4-(N-methylacetamido)cyclohexyl)acetamide] |
| 390 | 6 | 12 | 44 | 2400 | 670 | CC(C)C(=O)N(C)[C@H]1CC[C@H](CC(=O)Nc2cnc(-c3ccc([C@]4(N)C[C@](C)(O)C4)cc3)c(-c3ccccc3)c2)CC1 [Example 99, N-(4-(2-((6-(4-(trans-1-amino-3-hydroxy-3-methylcyclobutyl)phenyl)-5-phenylpyridin-3-yl)amino)-2-oxoethyl)cyclohexyl)-N-methylisobutyramide] |
| 8800 | 50 | 290 | 710 | > 30000 | > 30000 | COC(=O)N(C)[C@H]1CC[C@H](CC(=O)Nc2cc(-c3ccccc3)c(-c3ccc(C4(N)CC(F)(F)C4)cc3)nn2)CC1 [Example 60, Methyl (trans-4-(2-((6-(4-(1-amino-3,3-difluorocyclobutyl)phenyl)-5-phenylpyridazin-3-yl)amino)-2-oxoethyl)cyclohexyl)(methyl)carbamate] |

Second part, the compound before the results:

| SMILES | IC50 [1] [nM] | IC50 [2] [nM] | IC50 [3] [nM] | IC50 [4] [nM] | IC50 [5] [nM] | IC50 [6] [nM] |
| --- | --- | --- | --- | --- | --- | --- |
| CN(C)C(=O)[C@H]1CC[C@H](CC(=O)Nc2cnc(-c3ccc(C(C)(C)N)cc3)c(-c3ccccc3)c2)CC1 [Example 55, trans-4-(2-((6-(4-(2-aminopropan-2-yl)phenyl)-5-phenylpyridin-3-yl)amino)-2-oxoethyl)-N,N-dimethylcyclohexanecarboxamide] | 3800 | 1600 | 160 | 3300 | > 30000 | > 30000 |
| NC1(c2ccc(-c3cnc(NC(=O)C[C@H]4CC[C@H](N5CCOC5=O)CC4)cc3-c3ccsc3)cc2)CCC1 [Example 70, N-(5-(4-(1-aminocyclobutyl)phenyl)-4-(thiophen-3-yl)pyridin-2-yl)-2-(trans-4-(2-oxooxazolidin-3-yl)cyclohexyl)acetamide] | 910 | 42 | 39 | 830 | > 30000 | > 30000 |
| CN(C(=O)C1CC1)[C@H]1CC[C@H](CC(=O)Nc2cc(-c3ccccc3)c(-c3ccc(C4(N)CC4)cc3)nn2)CC1 [Example 87, N-(trans-4-(2-((6-(4-(1-aminocyclopropyl)phenyl)-5-phenylpyridazin-3-yl)amino)-2-oxoethyl)cyclohexyl)-N-methylcyclopropanecarboxamide] | 3300 | 29 | 130 | 510 | > 30000 | > 30000 |
| CCOC(=O)N(C)[C@H]1CC[C@H](CC(=O)Nc2cnc(-c3ccc([C@]4(N)C[C@](C)(O)C4)cc3)c(-c3ccccc3)c2)CC1 [Example 97, Ethyl (4-(2-((6-(4-(trans-1-amino-3-hydroxy-3-methylcyclobutyl)phenyl)-5-phenylpyridin-3-yl)amino)-2-oxoethyl)cyclohexyl)(methyl)carbamate] | 600 | 5 | 6 | 48 | 2900 | 880 |
| CCC(=O)N(C)[C@H]1CC[C@H](CC(=O)Nc2cnc(-c3ccc([C@]4(N)C[C@](C)(O)C4)cc3)c(-c3ccccc3)c2)CC1 [Example 98, N-(4-(2-((6-(4-(trans-1-amino-3-hydroxy-3-methylcyclobutyl)phenyl)-5-phenylpyridin-3-yl)amino)-2-oxoethyl)cyclohexyl)-N-methylpropionamide] | 470 | 5 | 7 | 53 | 3500 | 880 |
| COC(=O)N(C)[C@H]1CC[C@H](CC(=O)Nc2cc(-c3ccccn3)c(-c3ccc(C4(N)CCC4)cc3)cn2)CC1 [Example 86, Methyl (trans-4-(2-((5′-(4-(1-aminocyclobutyl)phenyl)-[2,4′-bipyridin]-2′-yl)amino)-2-oxoethyl)cyclohexyl)(methyl)carbamate] | 12000 | 480 | 430 | 14000 | > 30000 | > 30000 |
| CC(C)(N)c1ccc(-c2ncc(NC(=O)C[C@H]3CC[C@H](N4CCCC4=O)CC3)cc2-c2ccccc2)cc1 [Example 24, N-(6-(4-(2-aminopropan-2-yl)phenyl)-5-phenylpyridin-3-yl)-2-(trans-4-(2-oxopyrrolidin-1-yl)cyclohexyl)acetamide] | 6700 | 300 | 170 | 10000 | > 30000 | > 18000 |
| COC(=O)N[C@H]1CC[C@H](CC(=O)Nc2cnc(-c3ccc(C4(N)CC(F)(F)C4)cc3)c(-c3ccccc3)c2)CC1 [Example A4, Methyl (trans-4-(2-((6-(4-(1-amino-3,3-difluorocyclobutyl)phenyl)-5-phenylpyridin-3-yl)amino)-2-oxoethyl)cyclohexyl)carbamate] | 7600 | 630 | 440 | 2400 | 11000 | > 30000 |
